{
  "source": "patent US20230310627A1",
  "about": "“COMBINATION THERAPY WITH ANTI-TROP-2 ANTIBODIES AND PARP INHIBITORS” (priority 2021, published 2023)",
  "key": {"[1]": {"tested_on": "TNBC xenografts", "conditions": "nude mice bearing TNBC xenografts; independent of BRCA1/2 mutation status; cited from earlier work"}, "[2]": {"tested_on": "patients with mTNBC", "assay": "Phase 1b/2 open-label study of SG in combination with talazoparib (NCT04039230)", "assay_type": "in vivo, human", "conditions": "every 21 days", "procedure": "Study Design: In a Phase 1b/2, open-label study, SG was administered in combination with talazoparib for patients with mTNBC (clinicaltrials.gov#NCT04039230; FIG. 2A). Treatment cycles were continued until unacceptable toxicity or progression of disease at the discretion of the treating physician. Within 4 weeks prior to the first dose of study treatment administration, baseline evaluations were completed which included patient medical and surgical history, a physical examination with vital signs and performance evaluation, laboratories, and tumor assessment imaging. Once on active treatment, patients were administered SG and talazoparib over a 21 day cycle or 28 day cycle. […] All patients were monitored closely over the course of their treatment and NCI CTC v5.0 was used to grade all adverse events and provide dose reduction, delay, or cessation guidelines in the event of treatment-related toxicity. […]\nStudy Population: Patients enrolled were 18 years of age or older with histological or cytological confirmation of TNBC as determined by the local institution, with metastatic disease documented by CT or MRI imaging, and currently have measurable disease by CT/MRI. […]\nEndpoints: Safety and tolerability of SG in combination with talazoparib was evaluated from adverse events, standard safety laboratories, physical examination, vital signs, and EKG. […]"}, "[3]": {"conditions": "veliparib in combination with topotecan; cited from earlier work"}, "[4]": {"tested_on": "phosphorylated histone H2AX (γH2AX)", "assay": "Flow cytometry of phosphorylated histone H2AX (γH2AX)", "assay_type": "cell-based", "procedure": "Flow Cytometry: For flow cytometry detection of γH2AX (also known as g-H2AX), 1×10^6 cells were collected and fixed with 4% paraformaldehyde at 4° C. for 20 min and then permeabilized with 0.25% Triton X-100 in PBS. After blocking with 2% BSA in PBS at 4° C. for 20 min, the cells were stained with Alexa Fluor® 488 conjugated anti-phospho Histone H2A.X antibody (EMD Millipore, clone JBW301, #05-636-AF488) at 4° C. for 1 h. The cells were then washed twice with 2% BSA in PBS and counterstained with DAPI (Abcam, #ab228549). For flow cytometry detection of apoptotic cells, 1×10^6 cells were collected, and the staining was performed by using eBioscience™ Annexin V Apoptosis Detection Kit APC (Invitrogen, #88-8007) according to manufacturer's instruction. Samples were examined using a FACSAria flow cytometer. […]\nWithout wishing to be bound by any theory, sequential PARPi is believed to enhance SG toxicity through stabilization of TOP1CC that persist following SG washout due to the high delivered SN38 concentration in tumor cells (FIG. 3A). TOP1CC was quantified by two methods: the RADAR (Rapid Approach to DNA Adduct Recovery) assay, which detects TOP1 covalently bound to DNA, and by immunofluorescence. […] Persistent TOP1CC are expected to lead to DNA damage including double-strand DNA breaks, which were quantified using flow cytometry to assess phosphorylated histone H2AX (γH2AX) staining. […]"}, "[5]": {"biological_target": "T1, TOP1 cleavage complexes (TOP1CC) (Homo sapiens, UniProt P11387)", "T1 construct": "endogenous in cells; host or cells: MDA-MB-468 breast cancer cells (immunofluorescence); TNBC cell models (RADAR)", "T1 sequence (P11387 1-765)": "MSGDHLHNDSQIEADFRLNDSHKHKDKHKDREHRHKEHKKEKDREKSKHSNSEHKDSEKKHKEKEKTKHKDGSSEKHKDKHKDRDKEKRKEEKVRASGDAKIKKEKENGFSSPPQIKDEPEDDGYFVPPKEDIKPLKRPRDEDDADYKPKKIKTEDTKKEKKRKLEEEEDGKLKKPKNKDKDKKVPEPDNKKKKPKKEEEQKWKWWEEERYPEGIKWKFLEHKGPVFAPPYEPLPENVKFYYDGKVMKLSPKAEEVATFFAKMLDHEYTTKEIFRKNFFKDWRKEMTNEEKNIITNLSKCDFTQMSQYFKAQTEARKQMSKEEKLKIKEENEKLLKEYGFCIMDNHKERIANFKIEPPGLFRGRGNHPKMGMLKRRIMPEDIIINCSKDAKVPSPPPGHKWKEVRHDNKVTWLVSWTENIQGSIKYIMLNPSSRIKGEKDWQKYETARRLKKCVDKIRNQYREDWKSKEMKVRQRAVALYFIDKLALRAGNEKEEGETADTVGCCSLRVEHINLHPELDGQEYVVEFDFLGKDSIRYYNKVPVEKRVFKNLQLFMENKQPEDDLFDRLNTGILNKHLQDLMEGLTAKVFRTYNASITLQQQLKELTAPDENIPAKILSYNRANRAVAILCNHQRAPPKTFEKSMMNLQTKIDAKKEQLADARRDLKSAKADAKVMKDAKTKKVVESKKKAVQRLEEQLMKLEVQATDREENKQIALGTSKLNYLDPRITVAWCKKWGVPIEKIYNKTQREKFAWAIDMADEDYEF", "assay": "TOP1CC detection by RADAR assay and immunofluorescence", "assay_type": "cell-based", "procedure": "Modification of the RADAR assay for detection of TOP1CC: Detection of TOP1CC was performed according to the published protocol (PMID: 34408146) with minor modification. After SG and/or TZP treatment, 1×10^6 cells per condition were washed with 1×PBS and lysed with 600 μl DNAzol (Invitrogen) at 4° C. for 10 min, followed by precipitation with 300 μl 100% ethanol. The nucleic acids were collected by centrifugation at 15,000 rpm for 10 min at 4° C., washed with 75% ethanol twice and resuspended in 200 μl TE buffer. The samples were then heated at 65° C. for 15 min, followed by shearing with sonication (40% output for 10 s pulse and 10 s rest for four times). […] The concentration of the sample was quantified by NanoDrop. […]\nImmunofluorescence: To visualize TOP1CC by immunofluorescence, cells were plated into 96-well plates having #1.5 glass coverslips (Cellvis, P98-1.5H-N). […] Images were compiled and quantified using ImageJ software.\nWithout wishing to be bound by any theory, sequential PARPi is believed to enhance SG toxicity through stabilization of TOP1CC that persist following SG washout due to the high delivered SN38 concentration in tumor cells (FIG. 3A). TOP1CC was quantified by two methods: the RADAR (Rapid Approach to DNA Adduct Recovery) assay, which detects TOP1 covalently bound to DNA, and by immunofluorescence. […]"}, "[6]": {"tested_on": "patients with previously treated mTNBC", "conditions": "phase III ASCENT; cited from earlier work"}, "[7]": {"tested_on": "normal diploid cells (WI-38)", "assay": "In vitro cytotoxicity of sequential SG then talazoparib in normal diploid cells", "assay_type": "cell-based", "procedure": "Cell Lines and Cell Culture: All cell lines were obtained from the MGH Center for Molecular Therapeutics cell bank in and underwent high-density SNP typing to confirm their identity. All experiments shown were performed within less than 6 months' passage of all lines since acquisition. Cells were maintained at 37° C. in 5% CO2. MDA-MB-468 cells were grown in RPMI (Lonza) supplemented with 10% FBS (SAFC), 1% penicillin (Gibco), streptomycin (Gibco). WI-38 cells were grown in DMEM (Lonza) supplemented with 10% FBS (SAFC), 1% penicillin (Gibco), streptomycin (Gibco).\nTROP2-expressing TNBC cells or normal diploid cells were exposed to SG, followed by washout, then PARPi treatment with Talazoparib."}, "[8]": {"tested_on": "colorectal cancer", "conditions": "continuous olaparib administration; cited from earlier work"}},
  "data": [
    {"compound": "Cn1ncnc1[C@H]1c2n[nH]c(=O)c3cc(F)cc(c23)N[C@@H]1c1ccc(F)cc1", "note": "[talazoparib]", "values": [
      {"measurement": "tumor growth inhibition in combination with sacituzumab govitecan", "setting": "[1]", "value": "Synthetic lethality and synergistic inhibition of tumor growth"},
      {"measurement": "recommended phase-2 dose (R2PD)", "setting": "[2]; talazoparib on days 15-21 after SG", "value": 1, "unit": "mg"}
    ]},
    {"compound": "CC[C@@]1(O)C(=O)OCc2c1cc1n(c2=O)Cc2cc3c(CN(C)C)c(O)ccc3nc2-1", "note": "[topotecan]", "values": [
      {"measurement": "MTD in the combination relative to single-agent MTD", "setting": "[3]", "value": 40, "unit": "%"}
    ]},
    {"compound": "sacituzumab govitecan [SG]", "values": [
      {"measurement": "DNA damage (γH2AX staining) after SG washout", "setting": "[4]", "value": "resolution of DNA damage within 24 hours"},
      {"measurement": "TOP1CC following SG washout", "setting": "[5]", "value": "resolved entirely within two hours"},
      {"measurement": "median overall survival", "setting": "[6]", "value": 12.1, "unit": "months"},
      {"measurement": "median progression-free survival", "setting": "[6]", "value": 5.6, "unit": "months"},
      {"measurement": "recommended phase-2 dose (R2PD)", "setting": "[2]; sequential SG on days 1,8 with talazoparib", "value": 10, "unit": "mg/kg"},
      {"measurement": "SG sensitivity (cytotoxicity)", "setting": "[7]", "value": "little SG sensitivity"}
    ]},
    {"compound": "O=C(c1cc(Cc2n[nH]c(=O)c3ccccc23)ccc1F)N1CCN(C(=O)C2CC2)CC1", "note": "[olaparib]", "values": [
      {"measurement": "toxicity of the combination with irinotecan", "setting": "[8]", "value": "higher-than-expected toxicities and considered intolerable"},
      {"measurement": "tumor growth inhibition in combination with sacituzumab govitecan", "setting": "[1]", "value": "Synthetic lethality and synergistic inhibition of tumor growth"}
    ]},
    {"compound": "CNCc1ccc(-c2[nH]c3cc(F)cc4c3c2CCNC4=O)cc1", "note": "[rucaparib]", "values": [
      {"measurement": "tumor growth inhibition in combination with sacituzumab govitecan", "setting": "[1]", "value": "Synthetic lethality and synergistic inhibition of tumor growth"}
    ]},
    {"compound": "C[C@]1(c2nc3c(C(N)=O)cccc3[nH]2)CCCN1", "note": "[veliparib]", "values": [
      {"measurement": "MTD in the combination relative to single-agent MTD", "setting": "[3]", "value": 3, "unit": "%"}
    ]}
  ]
}
